Legend:
[1] = test system: oxaliplatin-induced thermal hyperalgesia; assay: Prevention of OIPN, cold plate latency; assay type: in vivo, male Sprague Dawley rats; conditions: 25 mg/kg BID, P < .001
Method: (§1) Male Sprague Dawley rats (150–210 g) were housed in groups of 4 in intra-ventilated Perspex home cages. Humidity, temperature (21 ± 1 °C), and lighting (light-dark cycle of 12:12 hours) were controlled and maintained in the home cages, with food and water available ad libitum. Rats acclimatised to the home cages for at least 1 week. All experiments were carried out according to the Animals (Scientific Procedures) Act, 1986 (U.K. Government Home Office). The study was performed under the Home Office project licence number PP0847012. OIPN was established with a single dose of OXA (10 mg/kg, IP).
Pain measurements were made on Days 5/6 (when neuropathy has normally developed) and at the end of the study. […] Terminal plasma samples were taken for bioanalysis and proteomics (Somalogic). […]
Thermal hyperalgesia was assessed using a cold plate (Bioseb, France) set at a fixed temperature of 15 °C. Latency to the first escape behaviour from the plate was measured indicating discomfort to the thermal stimulation. […]
To acquire baseline readings, pain behaviour was assessed on 3 consecutive days (Days −3, −2, −1). […] NPB expressed as a percentage change from HBL was calculated as follows (HBL-NPB)/HBL*100. […]

[2] = test system: oxaliplatin-induced mechanical allodynia; assay: Prevention of OIPN, paw withdrawal threshold; assay type: in vivo, male Sprague Dawley rats
Method: as §1
(§2) Pain measurements were made on Days 5/6 (when neuropathy has normally developed) and at the end of the study. […] Terminal plasma samples were taken for bioanalysis and proteomics (Somalogic). Brain regions involved in pain processing, that is, prefrontal cortex (PFC), periaqueductal grey (PAG), whole spinal cords (SC), and L4-L6 dorsal root ganglia, were collected for lipidomic and genomic (Genewiz, China) analyses.
Tactile allodynia (primary outcome measure) was assessed using paw withdrawal threshold (PWT), a measure of pain sensitivity. PWT was evaluated using calibrated von-Frey monofilaments (Touch-Test Sensory Evaluator; Scientific Marketing Associates) applied to the plantar surface of the left hind paw. PWT was determined by increasing and decreasing stimulus intensity and estimated using Dixon’s up-down method.[38],[39]
To acquire baseline readings, pain behaviour was assessed on 3 consecutive days (Days −3, −2, −1). The mean of Day −2 and Day −1 was considered the healthy baseline (HBL) prior to OIPN induction. On Days 5 and 6 after OXA injection, thresholds were reassessed. The mean of Days 5 and 6 was considered the neuropathic baseline (NPB). Animals were then ranked and randomised (based on a Latin square design) to treatment groups according to the percentage change of the mean thresholds observed in the NPB compared to the HBL. NPB expressed as a percentage change from HBL was calculated as follows (HBL-NPB)/HBL*100. All behavioural assessment was done by an experimenter blinded to the identity of the treatment. Separate people were responsible for dosing and assessment/data analysis.

[3] = target: FABP3 (Homo sapiens, UniProt P05413); assay: Fluorescence displacement binding assay (DAUDA probe)
Sequence of FABP3 (P05413 whole entry, species assumed): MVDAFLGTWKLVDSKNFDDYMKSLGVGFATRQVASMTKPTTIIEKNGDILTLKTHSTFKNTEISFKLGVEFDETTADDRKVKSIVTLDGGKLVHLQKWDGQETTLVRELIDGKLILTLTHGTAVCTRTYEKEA
Method: Purified FABPs were incubated with 11-(dansylamino)undecanoic acid (DAUDA) (FABP3, FABP5) or 8-anilino-1-naphthalenesulfonic acid (ANS) (FABP7) in the presence or absence of FABP inhibitors (.01–200 μM) in the binding assay buffer. FABP4 binding was assessed using a commercially available kit (Cayman Chemical, Ann Arbor). In all cases, arachidonic acid (10 μM) was included to account for maximal probe displacement. Loss of fluorescence intensity was monitored with an F5 Filtermax Multi-Mode Microplate Reader (Molecular Devices, Sunnyvale) using the following excitation and emission wavelengths (DAUDA: ex./em.= 360/535 nm; ANS: ex./em. = 360/465 nm). Following background subtraction, the fluorescence intensity values were normalised and analyzed via a one-site binding model using the GraphPadPrism (version 9.2). Ki values were determined using the following equation: Ki= IC50/(1 + ([Probe]/Kd).

[4] = Prevention of OIPN, body weight; assay type: in vivo, male Sprague Dawley rats; conditions: 10 mg/kg BID, P < .05
From the text: as §2

[5] = test system: oxaliplatin-induced mechanical allodynia; assay: Acute dosing in established OIPN, von-Frey paw withdrawal threshold; assay type: in vivo, male Sprague Dawley rats; conditions: for PWT response versus vehicle: 2 hours
Method: OXA (Tocris Bioscience) was dissolved in 5% dextrose (Sigma-Aldrich) and administered intraperitoneally (IP) at a volume of 6 mL/kg. […] AM251 (CB1 antagonist; Tocris Bioscience), AM630 (CB2 antagonist; Tocris Bioscience), GW6471 (PPARα antagonist; Tocris Bioscience), and AMG9810 (TRPV1 antagonist; Tocris Bioscience) were dissolved in saline with 4% dimethyl sulfoxide and delivered IP. Male Sprague Dawley rats (150–210 g) were housed in groups of 4 in intra-ventilated Perspex home cages. Humidity, temperature (21 ± 1 °C), and lighting (light-dark cycle of 12:12 hours) were controlled and maintained in the home cages, with food and water available ad libitum. Rats acclimatised to the home cages for at least 1 week. All experiments were carried out according to the Animals (Scientific Procedures) Act, 1986 (U.K. Government Home Office). The study was performed under the Home Office project licence number PP0847012. OIPN was established with a single dose of OXA (10 mg/kg, IP). […] Tactile allodynia (primary outcome measure) was assessed using paw withdrawal threshold (PWT), a measure of pain sensitivity. PWT was evaluated using calibrated von-Frey monofilaments (Touch-Test Sensory Evaluator; Scientific Marketing Associates) applied to the plantar surface of the left hind paw. PWT was determined by increasing and decreasing stimulus intensity and estimated using Dixon’s up-down method.[38],[39] To acquire baseline readings, pain behaviour was assessed on 3 consecutive days (Days −3, −2, −1). The mean of Day −2 and Day −1 was considered the healthy baseline (HBL) prior to OIPN induction. On Days 5 and 6 after OXA injection, thresholds were reassessed. The mean of Days 5 and 6 was considered the neuropathic baseline (NPB). Animals were then ranked and randomised (based on a Latin square design) to treatment groups according to the percentage change of the mean thresholds observed in the NPB compared to the HBL. NPB expressed as a percentage change from HBL was calculated as follows (HBL-NPB)/HBL*100. All behavioural assessment was done by an experimenter blinded to the identity of the treatment. Separate people were responsible for dosing and assessment/data analysis.

[6] = Terminal plasma levels, OIPN prevention study; assay type: in vivo, male Sprague Dawley rats
From the text: as §2

[7] = Plasma concentration in PKPD time course (established OIPN); assay type: in vivo, male Sprague Dawley rats; conditions: OIPN rats, single 100 mg/kg PO
Method: The doses were based on previous studies that used these antagonists in animal models of CIPN.[33]–[37]
Quantitative bioanalysis by LC-MS/MS of plasma and spinal cord levels of ART26.12 was carried out by a commercial supplier (Sygnature Discovery, Nottingham, UK).

## COc1ccccc1[C@@H]1[C@H](C(=O)O)[C@@H](c2ccccc2OC)[C@H]1C(=O)OC1Cc2ccccc2C1 [ART26.12, (+)–3-Indan-2-yloxycarbonyl-2,4-bis(2-methoxyphenyl)cyclobutanecarboxylic acid]
[1]
  cold plate latencies on Day 14 versus vehicle: significantly higher cold plate latencies than the vehicle group
[2]; 10 mg/kg BID, P < .001
  PWT on Day 5/6 compared to HBL: significantly lower PWTs
[2]; 25 mg/kg BID, P < .05
  PWT on Day 5/6 compared to HBL: significantly lower PWTs
[2]; ART26.12 10 or 25 mg/kg BID groups
  PWT on Day 14 compared to HBL: neither the ART26.12 nor the pregabalin groups showed significant allodynia
[3]
  Ki: 71.3 ± 2.4 µM
[4]
  body weight on Day 5 versus Day 0: significantly higher body weight than Day 0
[5]; 100 mg/kg PO co-administered with AM630 (CB2 antagonist) 3 mg/kg IP
  PWT response versus vehicle: not significantly different to vehicle
[5]; 100 mg/kg PO co-administered with AMG9810 (TRPV1 antagonist) 3 mg/kg IP
  PWT response versus vehicle: not significantly different to vehicle
[5]; 100 mg/kg PO co-administered with GW6471 (PPARα antagonist) 4 mg/kg IP
  PWT response versus vehicle: not significantly different to vehicle
[5]; 100 mg/kg PO co-treated with AM251 (CB1 antagonist) 3 mg/kg IP, P < .05
  PWT compared to ART26.12 alone: significantly reduced PWT
[5]; established OIPN, acute oral dosing
  duration of acute attenuation of mechanical allodynia: up to 8 hours
[5]; established OIPN, 50 mg/kg (P < .05), 75 mg/kg (P < .05), 100 mg/kg (P < .001) PO, 30 minutes and 2 hours post-dose
  PWT compared to vehicle: significantly increased PWT
[5]; established OIPN, 100 mg/kg PO, at 30 minutes, 2, 3, 4 and 8 hours
  PWT time course after single dose: significantly increased
[5]; mechanism study, 100 mg/kg PO, 30 minutes or 2 hours, P < .01
  PWT compared to vehicle-alone: significantly increased PWT
[6]; 10 mg/kg BID
  mean plasma levels on Day 15: 4.49 ± .99 µM
[6]; 25 mg/kg BID
  mean plasma levels on Day 15: 7.45 ± 1.58 µM
[7]; mean ± SEM
  peak total plasma concentration: 122 ± 13 µM
[7]; male, Sprague Dawley, rat, plasma, read-out: time of peak plasma concentration
  Tmax: ~3 h

— article PMC12993615 (The journal of pain, 2024)
